In patent US7053095B2, “Triazole compounds as transforming growth factor (TGF) inhibitors” (Pfizer Inc., priority 2002, dated 2006):

Target: T1, TβRI (ALK-5) (Homo sapiens, UniProt P36897)
T1 construct: with same assay conditions using either the kinase domain of ALK5 with Smad3 as substrate; GST
T1 sequence (P36897 205-495 limits assumed): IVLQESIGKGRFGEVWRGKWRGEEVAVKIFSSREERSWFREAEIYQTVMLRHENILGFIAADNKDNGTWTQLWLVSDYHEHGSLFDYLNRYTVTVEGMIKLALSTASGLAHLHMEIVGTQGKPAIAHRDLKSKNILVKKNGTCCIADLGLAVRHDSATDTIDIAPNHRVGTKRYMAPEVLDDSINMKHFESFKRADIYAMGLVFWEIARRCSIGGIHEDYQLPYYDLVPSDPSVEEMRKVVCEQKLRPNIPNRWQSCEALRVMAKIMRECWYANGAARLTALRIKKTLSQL
Experiment: ALK-5 (TβRI) kinase assay
Type: biochemical
Protocol: ALK-5 (TβRI) Kinase Assay Protocol
The kinase assays were performed with 65 nM GST-ALK5 and 84 nM GST-Smad3 in 50 mM HEPES, 5 mM MgCl2, 1 mM CaCl2, 1 mM dithiothreitol, and 3_M ATP. Reactions were incubated with 0.5_Ci of [33 P]_ATP for 3 h at 30° C. Phosphorylated protein was captured on P-81 paper (Whatman, Maidstone, England), washed with 0.5% phosphoric acid, and counted by liquid scintillation. Alternatively, Smad3 or Smad1 protein was also coated onto FlashPlate Sterile Basic Microplates (PerkinElmer Life Sciences, Boston, Mass.). Kinase assays were then performed in Flash-Plates with same assay conditions using either the kinase domain of ALK5 with Smad3 as substrate or the kinase domain of ALK6 (BMP receptor) with Smad1 as substrate. Plates were washed three times with phosphate buffer and counted by TopCount (Packard Bio-science, Meriden, Conn.). (Laping, N.J. et al. Molecular Pharmacology 62:58–64 (2002)).

Cc1cccc(-c2n[nH]nc2-c2ccc3nnc(C)n3c2)n1 [Example 2, 3-Methyl-6-[5-(6-methyl-pyridin-2-yl)-2H-[1,2,3]triazol-4-yl]-[1,2,4]triazolo[4,3-a]pyridine]
IC50: ~58 nM
